The record followed here is article PMC6452685, “Lysyl-tRNA synthetase as a drug target in malaria and cryptosporidiosis” (Proceedings of the National Academy of Sciences of the …, 2019).

For series [1], the system named is P. vivax liver schizonts/hypnozoites. Briefly: P. vivax liver schizonts/hypnozoites (prophylactic mode). Particulars: Plasmodium vivax. In kind it is cell-based. How it is done: Thi s i s bas ed on met hods prev i ous l y report ed (12 ). In bri ef, HepG 2-A1 6-CD81EGFP cel l s were cul tured at 3 7 °C i n 5% C O2 in DMEM me dia. For both P. berghei-Luc and HepG2 cytotoxi ci ty assays, 3x 10**3 of the HepG2-A16-CD81EGFP20 cells in 5 µl of assay medi um (DMEM wi thout Phenol Red (Li fe Techn ol ogi es, CA), 5% FBS, and 5x Pen Stre p Gl utami ne (Li fe Techn ol ogi es, CA)) at concentrati o n 6x 10**5 cel l s /ml were s eeded i n white s oli d bottom 153 6-well pl at es (cus t om G NF mol d ref# 7891 73-F, Grei ner Bi o-One), 2 0-26 h prior to sporozoites infection. […]
pri or t o i nfect i on 5 0 nl of comp ounds i n 1:3 s eri al di l ut i ons in DMSO (0. 5% fi nal DMSO concentrati on per w el l ) w ere t rans ferred w i t h an Acous ti c Trans fer Sy s t em (ATS) (Bi os ero) t o the cells. Atovaquone (5µ M) and pu romy ci n (1 0 µM) at a single concentration were used as pos i t i v e cont rol s for the Pbluc and He pG 2tox , res pecti v el y . 0. 5% DMSO was us ed as neg ati v e control for both as s ay s . […]
[…] Immediately after addition of the luminescence reagent, the luminescence was measured by the Env i s i on M ul t il abel Reader (Perk i nEl mer). […]
Thi s is a modification of the previously reported method (13). […]

Series [2] concerns Plasmodium falciparum. Kind of series: In vitro parasite reduction ratio (PRR) assay. Particulars: 10 x EC50, 120 h. In kind it is cell-based.
Method: 3.5 In vitro parasite reduction ratio (PRR) assay with Pl as modi um fal c i p aru m (G S K) The in vitro Parasite Rate Reduction assay (PRR) was conducted as previously described (8). […] Drug was renewed daily over the entire treatment period. Samples of paras i t es w ere t ak en from t he t reat ed cul t ure at i nt erv al s (24, 48, 72, 96 and 120 h t i me poi nt s ), drug was washed out and drug-free paras i t es w ere cul tured i n 96-well plates by adding fre s h e ry t hrocy t e s
and new cul ture medi a. T he n umber of vi abl e parasi tes was determi ned by the seri al di l uti on technique. Four indepe ndent serial dilutions were done with each sample to correct for experimental
Series [3] is described as follows: Toxicity in mice at higher doses. The format is in vivo. Particulars: higher doses (50 mg/kg orally).
Series [4] concerns P. falciparum stage V gametocytes. Kind of series: P. falciparum stage V gametocytes. The format is cell-based. The conditions noted are these: Plasmodium falciparum.
Method: Thi s is a modification of the previously reported method (13). Asexual P. falciparum paras i t es (NF54) from a cl one G 3 w ere g row n at 5% hemat ocri t i n O+ human ery t hrocy t es i n s erum-contai ni ng compl ete medi a (RPMI 1640, g entami ci n 0. 05 mg /ml , hy pox anthi ne 0. 05 mg/ml, HEPES 38.4 mM , sodium bicarbonate 0.2% [w/v], D-glucose 0.2% [w/v], sodium hydroxide 3.4 mM, 11.9% [w/v] heat-inactivated human serum [O+] and at 37 °C un de r l ow-ox y g en con di t i ons (3% O2, 5% C O2, and 92% N2) and a paras i temi a between 0. 5% and 3%. Ri ng-stage parasites were synchronized at 3%
paras i t aemi a (d-6) w i t h 5% (w /v ) D-Sorbi tol . On day −4, 45ml of compl ete medi a was added to the
cul ture fl as k to s tres s vi a hematocri t drop now at 2. 5%. The o n d-3 an d d-2 onl y 45 ml o f the medi a
was substituted for fres h medi a.
Series [5] can be described thus: Intrinsic clearance in human liver microsomes. In kind it is in vitro ADME. In general terms: Liver microsomes are a subcellular fraction often used to study metabolism.
The subject of series [6] is C. parvum. Briefly: Anti-Cryptosporidium in vivo efficacy in NOD SCID gamma mice. Further details: species or system mouse. How it is done:
INF-γ–knockout mice ([28], [29]) were infected orally with Nluc-expressing transgenic C. parvum oocysts. Treatment started upon patency 4 d postinfection (p.i.), and mice were treated orally once a day for 7 d. Infection was monitored daily by luciferase measurements in pooled feces of the entire cage. Mice were followed for 3 wk after completion of drug treatment. […] NOD SCID gamma mice were infected with C. parvum oocysts ([26]). Treatment started 7 d p.i., and mice were treated orally once a day for 7 d. The study was run with four mice per cage; infection was monitored by quantitative PCR on day eight for individual mice, and data are shown as oocysts per milligram of feces. […]
Data analysis was performed using GraphPad Prism 7.0 (GraphPad S oftware), Excel 2016 (Microsoft ) and R free so ftware (https://www.r-project.org) for data pl otti ng and s tati s ti cal model li ng. […]
The Nl uc-C. parvum IFN-γ-knockout (IFN-γ KO) m ouse in vivo experiments were run in acco rdance with the publ i s hed method (22). Briefly, female C57BL/ 6 IFN-γ KO mi ce, aged 6–8 weeks were infected with 10,000 C. parvum UG A1 Nl uc (Vi naya k et al 2015, Natu re) tra ns g eni c oocys ts . Mi ce (n=5 per g rou p) w ere admi ni s t ered 20 mg /k g of comp o und 5 fo rmul ated i n 3% et hanol , 7% Tw een 8 0, 90 % saline or t he f ormul at i on (v ehi cl e) by o ral g av ag e. […]

SMILES strings stand for the structures. Like-named read-outs stand apart in the source and are kept apart here.

Usually EC50 stands for the concentration at which the effect is half-maximal. With `O=C(NCC1(O)CCC(F)(F)CC1)c1cc(=O)c2cc(F)ccc2o1` [Compound 5], the EC50 is more than 10 µM in series [1] (hypnozoites, read-out: P. vivax hypnozoites EC50 (prophylactic mode)); 0.95 µM in series [1] (liver schizonts, read-out: P. vivax liver schizonts EC50 (prophylactic mode)); 9.9 µM in series [4]. The “rate of killing (PRR assay)” value in series [2] is on record as “slow rate of killing”. Further, the toxicity in mice entry in series [3] is “showed toxicity”. The “Microsomal stability CLint” value in series [5] is given as less than 0.5 mL⋅min^−1⋅g^−1. For the same compound, in series [6] (NOD SCID gamma mouse, 20 mg/kg orally once a day for 7 d, day 8), the “reduction in parasite levels compared with control” value is 100 fold. Further, in series [6] (dosed orally for 7 d, NOD SCID gamma mouse model), the “reduction of parasite burden” value was “two orders of magnitude”.
